Data on 1 molecule can be found in patent US7033615B2, “Methods for regulating levels of zinc, cadmium and calcium in humans and for diagnosing, or screening for the risk of developing, diseases associated with abnormal levels of cadmium, zinc and calcium in body fluids and tissues” (CancEr2 Inc., priority 1999, dated 2006).

Data set [1] in a line: Counter-exchange of serum cadmium to erythrocytes (erythrocyte Cd/(erythrocyte Cd+serum Cd)) in men given cadmium sulfate. In kind it is in vivo. The note with it: CdSO4 1 mg daily. The procedure:
(§1) Three healthy men with low PSA levels (below 2 ng/ml) volunteered for weekly blood and urine collection while a serial treatment of zinc, zinc with cadmium, and cadmium was administered. Treatment was given daily over a nine week period, followed by three weeks of continued sampling with no treatment. The zinc was administered in the form of zinc sulfate (Zn SO4) at a daily dosage of 75 mg. The cadmium was administered in the form of cadmium sulfate (CdSO4) at a daily dosage of 1 mg. Blood and urine were collected one day prior to the beginning of treatment for purposes of establishing a baseline level of chemicals in the blood and urine. Zinc salt administration began on the second day of the study and was administered each morning. On day 15, the cadmium salt administration was begun in the evening, with continued zinc salt administration continuing in the morning. Zinc administration was discontinued on day 43; cadmium administration continued through day 57. On days 58–78 of the study, neither zinc nor cadmium was administered, but blood and urine samples continued to be collected. Blood and urine were collected one day each week (days 1, 8, 15, etc.) for a total of 12 collection days over an 11 week period. […]
(§2) The second syringe contained no EDTA and was used to collect blood serum. […] All processed blood samples were stored in a −80° C. freezer until analyzed. […]

The test system of data set [2] is rat tissue vs human tissue. The note with it: rat tissue more sensitive than human tissue; cited from earlier work.
A further data set deals with erythrocytes. The data set is described as follows: Blockage of calcium penetration into erythrocytes (serum calcium/erythrocyte calcium) in men given cadmium sulfate. Format: in vivo. The following applies: three men, CdSO4 1 mg daily. The procedure:
as §1, §2

Take `O=S(=O)([O-])[O-].[Cd+2]` [cadmium, cadmium sulfate]: in data set [1] (three healthy low-PSA men, minimum increase per man), the “increase of counter-exchange of serum cadmium to erythrocytes in each man” value was not below 116%. The “average cadmium counter-exchange after cadmium treatment (mean+/-S.D.)” value in data set [1] (three men, increased from 0.311 +/-0.166) is on record as 0.466+/−0.077. Besides, the “sensitivity of rat tissue to cadmium relative to human tissue” value in data set [2] was 30 times. Further, the “increase of blockage to calcium penetration in each man” value in the data set with erythrocytes is 178–330%. For the same molecule, the “average blockage of calcium penetration after cadmium treatment (mean+/-S.D.)” value with erythrocytes (increased from 114.79+/-21.135, p=0.0492) is 314.001+/−150.942.
